{"source": "paper PMC12670317", "about": "“Targeted NAT10 Degradation by PROTAC NP1192 Suppresses Hypoxia-Adaptive Glycolysis and Reinvigorates CD8^+ Effector T‑Cell Function for Synergistic Cancer Immunotherapy” (ACS Central Science, 2025)", "key": {"SiHa cells": {"tested_on": "SiHa cells", "test": "SiHa cell viability IC50 (CCK-8)", "assay_type": "cell-based, human", "method": "NAT10^± SiHa cells and SiHa cells treated with DMSO, Remodelin or NP1192 for 36 h were seeded into the wells of a 96-well microplate at identical densities of 2000 or 3000 cells per well. After the cells adhered to the well surface, 110 μL of a 1:10 mixture of CCK-8 reagent (Meilunbio, China) and RPMI 1640 medium was added to each well. The microplate was then incubated for another 2 h in the incubator, and the mixture was replaced with an equal volume of medium. A microplate reader (BioTek, US) was used to measure the absorption at a wavelength of 450 nm."}, "[1]": {"tested_on": "cervical squamous cell carcinoma and endocervical adenocarcinoma (CESC) patient-derived organoids", "test": "ATP-based viability assay in patient-derived organoids, CESC", "assay_type": "cell-based", "conditions": "Homo sapiens, CESC PDOs, read-out: IC50, organoid viability", "method": "Organoid culture was performed according to previously established protocols. Briefly, we procured patient-derived tissue samples provided and technically manipulated by Accurate International Biotechnology Co., Ltd. Subsequently, these samples were subjected to mechanical and enzymatic dissociation to disaggregate the tissue into single cells or small clusters, while preserving cellular integrity. Following this initial step, the isolated cells or tissue fragments were embedded within a 3D ECM scaffold, such as Matrigel or collagen. The ECM scaffold served as a supportive substrate, promoting cellular self-organization and mimicking native tissue architecture. Additionally, a precisely formulated cocktail of growth factors, cytokines, and signaling molecules tailored to the specific tissue of interest was meticulously formulated and added to the culture medium to facilitate organoid growth and maintenance."}, "[2]": {"test": "Pharmacokinetic study in male SD rats", "assay_type": "in vivo", "conditions": "Sprague-Dawley (SD), rat, plasma; for AUC(0-t): 0–24 h; for MRT last: read-out: MRT(0−t); for MRT inf: read-out: MRT(0−∞)", "method": "Male SD rats (180–220 g) were purchased from Beijing Vital River Laboratory Animal Technology Co., Ltd. Blood samples (0.25 mL) were collected from the tail vein at 0.0833, 0.25, 0.5, 1, 2, 4, 6, 8, and 24 h after oral (10 mg/kg) or intravenous (2 mg/kg) administration of compound NP1192. Drug concentrations in the samples were determined by using liquid chromatography–mass spectrometry (LC-MS/MS). The mobile phase consisted of a mixture of solvent A (acetonitrile) and solvent B (formic acid/ultrapure water, 1:1000, v/v). The flow rate of the mobile phase was 0.3 mL/min, and the injection volume was 10 μL."}, "[3]": {"tested_on": "U14 cells subcutaneous xenograft", "test": "U14 subcutaneous xenograft model in C57BL/6J mice", "assay_type": "in vivo", "method": "U14 cells (1 × 10^7 cells per mouse, approximately 100–150 μL of cell suspension) were implanted subcutaneously into the lateral lower dorsal surface of each mouse. The tumors were allowed to grow for 7 days, and the mice were then administered one of five treatments (group 1: U14 cells + DMSO; group 2: U14 cells + Remodelin; group 3: U14 cells + anti-PD-L1 antibody; group 4: U14 cells + NP1192; group 5: U14 cells + anti-PD-L1 antibody + NP1192). Each group of mice was assigned according to the principles of randomization and the blinding method. Tumors were measured every 2 days, and tumor volume was calculated via the following equation: volume = (width)^2 × length/2. Remodelin and NP1192 were injected into the peritumoral area every 2 days at a dose of 25 mg/kg, and the in vivo antimouse PD-L1 antibody (low endotoxin) was injected every 3 days at a dose of 2.5 mg/kg.\nA lentiviral vector expressing firefly luciferase was transduced into the U14 cells. After puromycin selection and cell expansion, U14 cells with stable firefly luciferase expression were generated. C57BL/6J mice were randomly divided into the following 5 groups for further experiments: group 1, U14 cells + DMSO; group 2, U14 cells + Remodelin; group 3, U14 cells + anti-PD-L1 antibody; group 4, U14 cells + NP1192; and group 5, U14 cells + anti-PD-L1 antibody + NP1192. After tumor stabilization, the luciferase substrate was injected into the mice every 2 days, and fluorescence values were obtained via a Maestro in vivo imaging system."}, "RNA ac4C modification": {"tested_on": "RNA ac4C modification", "test": "ac4C RNA dot blot in SiHa cells", "assay_type": "cell-based, human", "conditions": "20 μM, 36 h, vs Remodelin-treated and NAT10-knockdown groups", "method": "RNA was extracted from cells via an RNA extraction kit (TransGen, China) and denatured by heating to 65 °C for 5 min in the presence of 2× RNA denaturation buffer (Solarbio, China) followed by an equal amount of 20x SSC buffer (Beyotime, China). A nylon membrane (Yeasen, China) was used to immobilize the denatured RNA by dotting RNA samples onto the membrane and cross-linking the RNA to the membrane via UV light. The samples were stained with methylene blue and photographed. Furthermore, the membrane was blocked with 5% milk and incubated with an anti-ac4C primary antibody (1:1000, Abcam, US) for 12 h. After the unbound primary antibody was washed away, the membrane was incubated with a secondary antibody (1:6000, Elabscience, China). The membrane was then washed to remove unbound secondary antibodies, and a detection reagent (Bio-Rad, US) was added to visualize the RNA bands via chemiluminescence with a ChemiDoc MP Imaging System (Bio-Rad, US)."}, "HFF-1 cells": {"tested_on": "HFF-1 cells", "test": "Cytotoxicity in nonmalignant HFF-1 cells", "assay_type": "cell-based, human", "conditions": "HFF-1 cells with low NAT10 expression"}, "[4]": {"tested_on": "CD8+ T cells cocultured with U14 cells", "conditions": "Figure 7B, coculture with U14 cells, 36 h", "procedure": "Fresh CD8^+ T cells were extracted according to the instructions of the kit. The day before the CD8^+ T cells were extracted, the antimouse CD3 antibody was diluted to 5 μg/mL with sterile PBS, and the diluted antibody was added to a 24-well plate and incubated overnight at 4 °C. (Before the antibody was added to the plate, the plate was rinsed with sterile PBS 2–3 times to avoid dry wells). The plate incubated the previous day was removed from the 4 °C refrigerator on the second day, and the coating solution was discarded, followed by washing with sterile PBS 3 times. Amplification culture medium consisting of DMEM + 10% serum + 5 μg/mL antimouse CD28 + IL-2 was prepared. The cell lines used for culture were maintained in the logarithmic growth phase (70–80% confluence). Cell counting was performed, and CCa cells were seeded in a 12-well plate (10^5 cells/well) and cultured until adherence. T cells were mixed with tumor cells at different effector-to-target ratios (1:10) and then incubated with different drugs for 24 h. Flow cytometry experiments were then performed to detect the CD8^+ T-cell subtypes."}}, "note": "Where two headings read alike, the source gives them in different places."}
{"smiles": "N#Cc1ccc(-c2csc(N(CCCCCCC(=O)N3CCN(c4cccc5c4C(=O)N(C4CCC(=O)NC4=O)C5=O)CC3)N=C3CCCC3)n2)cc1", "note": "(centres unmarked) [NP1192]", "values": [{"measurement": "IC50", "setting": "SiHa cells; Homo sapiens, parental SiHa cells, 36 h, read-out: IC50, inhibition of SiHa cell viability", "result": 7.81, "unit": "µM"}, {"measurement": "IC50 lower than that of Remodelin", "setting": "SiHa cells; SiHa cells", "result": 26.8, "unit": "%"}, {"measurement": "IC50", "setting": "[1]", "result": 3.05, "unit": "µM"}, {"measurement": "Cmax", "setting": "[2]; iv, i.v. 2 mg/kg", "result": "759 ± 134", "unit": "ng/mL"}, {"measurement": "AUC(0-t)", "setting": "[2]; iv, i.v. 2 mg/kg", "result": "365 ± 42.6", "unit": "ng·h/mL"}, {"measurement": "AUC(0-inf)", "setting": "[2]; iv, i.v. 2 mg/kg", "result": "367 ± 43", "unit": "ng·h/mL"}, {"measurement": "Tmax", "setting": "[2]; iv, i.v. 2 mg/kg", "result": 0.0833, "unit": "h"}, {"measurement": "clearance", "setting": "[2]; iv, i.v. 2 mg/kg", "result": 91.7, "unit": "mL/min/kg"}, {"measurement": "half-life", "setting": "[2]; iv, i.v. 2 mg/kg", "result": "0.967 ± 0.214", "unit": "h"}, {"measurement": "MRT last", "setting": "[2]; iv, i.v. 2 mg/kg", "result": "0.529 ± 0.0268", "unit": "h"}, {"measurement": "MRT inf", "setting": "[2]; iv, i.v. 2 mg/kg", "result": "0.57 ± 0.0206", "unit": "h"}, {"measurement": "Vd", "setting": "[2]; iv, i.v. 2 mg/kg, read-out: Vz", "result": "7.6 ± 1.39", "unit": "L/kg"}, {"measurement": "bioavailability", "setting": "[2]; oral, p.o. 10 mg/kg vs i.v. 2 mg/kg, read-out: oral bioavailability (F)", "result": 1.35, "unit": "%"}, {"measurement": "AUC(0-inf)", "setting": "[2]; po, p.o. 10 mg/kg", "result": "29.5 ± 1.59", "unit": "ng·h/mL"}, {"measurement": "Tmax", "setting": "[2]; po, p.o. 10 mg/kg", "result": 1.67, "unit": "h"}, {"measurement": "half-life", "setting": "[2]; po, p.o. 10 mg/kg", "result": "2.4 ± 1.15", "unit": "h"}, {"measurement": "MRT last", "setting": "[2]; po, p.o. 10 mg/kg", "result": "1.56 ± 0.358", "unit": "h"}, {"measurement": "MRT inf", "setting": "[2]; po, p.o. 10 mg/kg", "result": "2.85 ± 0.862", "unit": "h"}, {"measurement": "Cmax", "setting": "[2]; po, p.o. 10 mg/kg", "result": "13.9 ± 6.42", "unit": "ng/mL"}, {"measurement": "AUC(0-t)", "setting": "[2]; po, p.o. 10 mg/kg", "result": "24.7 ± 1.11", "unit": "ng·h/mL"}, {"measurement": "tumor volume", "setting": "[3]; 25 mg/kg every 2 days, compared to DMSO or Remodelin", "result": "significantly reduced tumor volume"}, {"measurement": "weight loss or systemic toxicity", "setting": "[3]; U14 xenograft mice, 25 mg/kg", "result": "did not cause significant weight loss or systemic toxicity"}, {"measurement": "reduction in tumor lactate levels", "setting": "[3]; xenograft tumors after treatment for 1 week", "result": "more than 40%"}, {"measurement": "RNA ac4C levels", "setting": "RNA ac4C modification", "result": "significant reduction in ac4C levels"}, {"measurement": "cytotoxicity in nonmalignant cells", "setting": "HFF-1 cells", "result": "minimal cytotoxicity"}, {"measurement": "Teff cells, IFN-γ gate (lower row)", "setting": "[4]", "result": 7.75, "unit": "%"}]}
